Earlier results on one molecule are cited in US20030133995A1, “Ingestible capsaicin neutralizer” (priority 2002, published 2003).

For series [1] the following is noted: pure capsaicin.
For series [2] the following is noted: pure form.
The test system of series [3] is tongue. The following applies: pure form diluted one hundred thousand fold.

As for `COc1cc(CNC(=O)CCCC/C=C/C(C)C)ccc1O` [capsaicin, N-Vanillyl-8-methyl-6-(E)-noneamide], the heat sensation result in series [1] is recorded as “approximately 16,000,000 Scoville units”. Further, the “solubility in aqueous solutions” value in series [2] (aqueous solutions) was “not very soluble”. The “solubility in fats, oils and alcohols” value in series [2] (fats, oils and alcohols) was “quite soluble”. For the same molecule, the “blistering of the tongue” value in series [3] was “can cause blistering of the tongue”.
